Laboratory results from patent US20230233569A1 (Revolution Medicines, Inc., priority 2020, published 2023).
Like-named read-outs stand apart in the source and are kept apart here.

Key:
Test in all cases: Ras-Raf disruption / FRET / MOA assay (BRAF RBD)
Assay type in all cases: biochemical
KRAS G12D = KRAS G12D (Homo sapiens, UniProt P01116+P62937, G12D); conditions: with Cyclophilin A
Outline: (§1)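 TR-FRET in 25 mM HEPES pH 7.3, 100 mM NaCl, 5 mM MgCl2, 0.1% BSA, 0.002% Tween20 with 25 μM Cyclophilin A, 12.5 nM His6-Ras-GMPPNP, 50 nM GST-BRAF RBD; compound 10-point 3-fold series from 30 μM. After 3 h at 25 °C, Eu anti-His/APC anti-GST added for 1.5 h; IC50 from ratio decrease versus DMSO.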

KRAS G12S = KRAS G12S (Homo sapiens, UniProt P01116+P62937, G12S); conditions: with Cyclophilin A
Outline: as §1

KRAS G12V = KRAS G12V (Homo sapiens, UniProt P01116+P62937, G12V); conditions: with Cyclophilin A
Outline: as §1

KRAS G13C = KRAS G13C (Homo sapiens, UniProt P01116+P62937, G13C); conditions: with Cyclophilin A
Outline: as §1

KRAS G13D = KRAS G13D (Homo sapiens, UniProt P01116+P62937, G13D); conditions: with Cyclophilin A
Outline: as §1

KRAS Q61H = KRAS Q61H (Homo sapiens, UniProt P01116+P62937, Q61H)
Outline: as §1

KRAS WT = KRAS WT (Homo sapiens, UniProt P01116+P62937); conditions: with Cyclophilin A
Outline: as §1

NRAS G12C = NRAS G12C (Homo sapiens, UniProt P01111+P62937, G12C)
Outline: as §1

NRAS Q61K = NRAS Q61K (Homo sapiens, UniProt P01111+P62937, Q61K)
Outline: as §1

NRAS Q61R = NRAS Q61R (Homo sapiens, UniProt P01111+P62937, Q61R)
Outline: as §1

NRAS WT = NRAS WT (Homo sapiens, UniProt P01111+P62937)
Outline: as §1

KRAS G12C = KRAS G12C (Homo sapiens, UniProt P01116+P62937, G12C); conditions: with Cyclophilin A
Outline: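 His6-K-Ras G12C-GMPPNP (12.5 nM), GST-BRAF RBD (50 nM) and tagless Cyclophilin A (25 μM) incubated 3 h at 25 °C with compound (10-point 3-fold series from 30 μM), pH 7.3 HEPES buffer. Anti-His Eu/anti-GST APC added for 1.5 h; decreased TR-FRET ratio vs DMSO gives IC50.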

[1] = KRAS G12D FRET data IC50, Ras-Raf disruption
[2] = KRAS G12S FRET data IC50, Ras-Raf disruption
[3] = KRAS G12V FRET data IC50, Ras-Raf disruption
[4] = KRAS G13C FRET data IC50, Ras-Raf disruption
[5] = KRAS G13D FRET data IC50, Ras-Raf disruption
[6] = KRAS WT FRET data IC50, Ras-Raf disruption
[7] = NRAS G12C FRET data IC50, NRAS G12C
[8] = KRAS G12C FRET data IC50, Ras-Raf disruption
[9] = Ras-Raf disruption, read-out: KRAS G12D FRET data IC50
[10] = Ras-Raf disruption, read-out: KRAS G12S FRET data IC50
[11] = Ras-Raf disruption, read-out: KRAS G12V FRET data IC50
[12] = Ras-Raf disruption, read-out: KRAS G13C FRET data IC50
[13] = Ras-Raf disruption, read-out: KRAS G13D FRET data IC50
[14] = KRAS Q61H, read-out: KRAS Q61H FRET data IC50
[15] = Ras-Raf disruption, read-out: KRAS WT FRET data IC50
[16] = NRAS G12C, read-out: NRAS G12C FRET data IC50
[17] = NRAS Q61K, read-out: NRAS Q61K FRET data IC50
[18] = NRAS Q61R, read-out: NRAS Q61R FRET data IC50
[19] = NRAS WT, read-out: NRAS WT FRET data IC50
[20] = Ras-Raf disruption, read-out: KRAS G12C FRET data IC50

Sequence of KRAS Q61H (P01116 1-169 isoform P01116-2 Q61H limits assumed): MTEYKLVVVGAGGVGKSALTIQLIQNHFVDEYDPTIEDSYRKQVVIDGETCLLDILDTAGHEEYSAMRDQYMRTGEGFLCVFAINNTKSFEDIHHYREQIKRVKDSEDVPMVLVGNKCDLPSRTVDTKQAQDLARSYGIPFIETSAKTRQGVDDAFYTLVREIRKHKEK
Sequence of KRAS Q61H (P62937 whole entry): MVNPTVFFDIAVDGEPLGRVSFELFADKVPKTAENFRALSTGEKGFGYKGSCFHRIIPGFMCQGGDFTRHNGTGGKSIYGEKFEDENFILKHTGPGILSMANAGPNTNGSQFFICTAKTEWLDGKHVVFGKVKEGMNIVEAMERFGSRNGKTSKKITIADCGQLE
Sequence of KRAS WT (P01116 1-169 isoform P01116-2 limits assumed): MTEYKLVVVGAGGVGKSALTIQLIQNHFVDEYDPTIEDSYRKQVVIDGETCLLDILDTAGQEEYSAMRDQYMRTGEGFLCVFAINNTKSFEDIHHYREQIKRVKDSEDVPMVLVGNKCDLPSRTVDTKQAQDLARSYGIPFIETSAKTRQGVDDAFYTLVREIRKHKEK
Sequence of KRAS WT (P62937 whole entry): as the sequence (P62937 whole entry) above
Sequence of KRAS G12C (P01116 1-169 isoform P01116-2 G12C limits assumed): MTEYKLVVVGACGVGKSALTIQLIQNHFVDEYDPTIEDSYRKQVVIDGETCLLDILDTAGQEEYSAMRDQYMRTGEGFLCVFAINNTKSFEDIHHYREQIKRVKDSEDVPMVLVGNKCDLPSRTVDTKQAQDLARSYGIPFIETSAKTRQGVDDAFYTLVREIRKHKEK
Sequence of KRAS G12C (P62937 whole entry): as the sequence (P62937 whole entry) above
Sequence of NRAS Q61R (P01111 whole entry Q61R): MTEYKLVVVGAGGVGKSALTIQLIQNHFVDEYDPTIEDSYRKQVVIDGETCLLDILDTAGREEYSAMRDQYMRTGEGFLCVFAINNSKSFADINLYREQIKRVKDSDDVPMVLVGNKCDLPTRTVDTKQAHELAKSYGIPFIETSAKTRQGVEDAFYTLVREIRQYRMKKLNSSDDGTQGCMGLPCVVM
Sequence of NRAS Q61R (P62937 whole entry): as the sequence (P62937 whole entry) above
Sequence of KRAS G13C (P01116 1-169 isoform P01116-2 G13C limits assumed): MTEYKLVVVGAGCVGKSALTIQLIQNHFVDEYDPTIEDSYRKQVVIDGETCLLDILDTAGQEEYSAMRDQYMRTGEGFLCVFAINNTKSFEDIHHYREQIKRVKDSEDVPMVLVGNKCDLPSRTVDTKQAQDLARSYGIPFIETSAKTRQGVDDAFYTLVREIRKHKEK
Sequence of KRAS G13C (P62937 whole entry): as the sequence (P62937 whole entry) above
Sequence of NRAS Q61K (P01111 whole entry Q61K): as the sequence (P01111 whole entry Q61R) above, with R61K counted along it
Sequence of NRAS Q61K (P62937 whole entry): as the sequence (P62937 whole entry) above
Sequence of KRAS G12S (P01116 1-169 isoform P01116-2 G12S limits assumed): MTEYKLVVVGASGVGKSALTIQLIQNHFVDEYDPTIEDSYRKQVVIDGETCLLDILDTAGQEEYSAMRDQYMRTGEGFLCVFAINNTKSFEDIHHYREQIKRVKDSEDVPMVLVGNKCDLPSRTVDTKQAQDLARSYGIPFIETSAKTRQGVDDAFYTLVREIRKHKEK
Sequence of KRAS G12S (P62937 whole entry): as the sequence (P62937 whole entry) above
Sequence of KRAS G13D (P01116 1-169 isoform P01116-2 G13D limits assumed): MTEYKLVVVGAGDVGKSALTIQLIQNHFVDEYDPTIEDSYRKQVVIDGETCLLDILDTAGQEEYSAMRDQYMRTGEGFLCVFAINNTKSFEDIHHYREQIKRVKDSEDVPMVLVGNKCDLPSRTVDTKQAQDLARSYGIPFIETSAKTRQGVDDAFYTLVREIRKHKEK
Sequence of KRAS G13D (P62937 whole entry): as the sequence (P62937 whole entry) above
Sequence of KRAS G12D (P01116 1-169 isoform P01116-2 G12D limits assumed): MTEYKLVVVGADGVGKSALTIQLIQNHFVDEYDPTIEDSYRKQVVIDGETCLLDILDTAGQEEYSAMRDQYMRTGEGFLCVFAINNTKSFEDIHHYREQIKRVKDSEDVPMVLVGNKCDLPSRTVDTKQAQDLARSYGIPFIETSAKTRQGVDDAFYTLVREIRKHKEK
Sequence of KRAS G12D (P62937 whole entry): as the sequence (P62937 whole entry) above
Sequence of NRAS WT (P01111 whole entry): as the sequence (P01111 whole entry Q61R) above, with R61Q counted along it
Sequence of NRAS WT (P62937 whole entry): as the sequence (P62937 whole entry) above
Sequence of NRAS G12C (P01111 whole entry G12C): as the sequence (P01111 whole entry Q61R) above, with G12C, R61Q counted along it
Sequence of NRAS G12C (P62937 whole entry): as the sequence (P62937 whole entry) above
Sequence of KRAS G12V (P01116 1-169 isoform P01116-2 G12V limits assumed): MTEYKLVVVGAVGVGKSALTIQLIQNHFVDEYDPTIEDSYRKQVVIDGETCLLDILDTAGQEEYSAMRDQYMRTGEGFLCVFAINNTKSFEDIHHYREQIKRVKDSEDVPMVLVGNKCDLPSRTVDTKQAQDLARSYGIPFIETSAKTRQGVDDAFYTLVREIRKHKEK
Sequence of KRAS G12V (P62937 whole entry): as the sequence (P62937 whole entry) above

Row | IC50 (KRAS G12D; [9]) | IC50 (KRAS G12S; [10]) | IC50 (KRAS G12V; [11]) | IC50 (KRAS G13C; [12]) | IC50 (KRAS G13D; [13]) | IC50 (KRAS Q61H; [14]) | IC50 (KRAS WT; [15]) | IC50 (NRAS G12C; [16]) | SMILES | IC50 (KRAS G12D; [1]) | IC50 (KRAS G12S; [2]) | IC50 (KRAS G12V; [3]) | IC50 (KRAS G13C; [4]) | IC50 (KRAS G13D; [5]) | IC50 (KRAS Q61H) | IC50 (KRAS WT; [6]) | IC50 (NRAS G12C; [7]) | IC50 (NRAS Q61K) | IC50 (NRAS Q61R) | IC50 (NRAS WT) | IC50 (KRAS G12C; [8]) | further results
1 |  |  |  |  |  |  |  |  | CCn1c(-c2cccnc2[C@H](C)OC)c2c3cc(ccc31)-c1cc(O)cc(c1)C[C@H](NC(=O)[C@H](C1CCCC1)N(C)C(=O)CN(C)C(=O)[C@H]1N[C@H]1C1(C#N)CC1)C(=O)N1CCC[C@H](N1)C(=O)OCC(C)(C)C2 [Example 316] | 10 to 100 nM | 10 to 100 nM | 10 to 100 nM | 10 to 100 nM | 10 to 100 nM | 10 to 100 nM | 10 to 100 nM | 10 to 100 nM | 100 to 1000 nM | 100 to 1000 nM | 10 to 100 nM | 10 to 100 nM | 
2 |  |  |  |  |  |  |  |  | CCn1c(-c2cccnc2[C@H](C)OC)c2c3cc(ccc31)-c1cc(O)cc(c1)C[C@H](NC(=O)[C@H](C1CCCC1)N(C)C(=O)CN(C)C(=O)[C@H]1[C@@H](C3CC3)N1CCCOC)C(=O)N1CCC[C@H](N1)C(=O)OCC(C)(C)C2 (stereo partly drawn) [Example 317] | 100 to 1000 nM | 10 to 100 nM | 10 to 100 nM | 10 to 100 nM | 100 to 1000 nM | 10 to 100 nM | 10 to 100 nM | 10 to 100 nM | 100 to 1000 nM | 100 to 1000 nM | 10 to 100 nM | 10 to 100 nM | 
3 |  |  |  |  |  |  |  |  | CCn1c(-c2cccnc2[C@H](C)OC)c2c3cc(ccc31)-c1cc(cc(C(F)F)c1)C[C@H](NC(=O)[C@H](C1CCCC1)N(C)C(=O)CN(C)C(=O)[C@@H]1N[C@@H]1C1CC1)C(=O)N1CCC[C@H](N1)C(=O)OCC(C)(C)C2 [Example 320] | 1000 to 10000 nM | 1000 to 10000 nM | 1000 to 10000 nM | 100 to 1000 nM | 1000 to 10000 nM | 100 to 1000 nM | 1000 to 10000 nM | 100 to 1000 nM | 1000 to 10000 nM | 1000 to 10000 nM | 1000 to 10000 nM | 100 to 1000 nM | 
4 |  |  |  |  |  |  |  |  | CCn1c(-c2cc(N3CCN(C)CC3)cnc2[C@H](C)OC)c2c3cc(ccc31)-c1cc(O)cc(c1)C[C@H](NC(=O)[C@H](C1CCCC1)N(C)C(=O)CN(C)C(=O)[C@@H]1N[C@@H]1C1CC1)C(=O)N1CCC[C@H](N1)C(=O)OCC(C)(C)C2 [Example 325] | < 10 nM | < 10 nM | < 10 nM | < 10 nM | 10 to 100 nM | < 10 nM | < 10 nM | < 10 nM | 10 to 100 nM | 10 to 100 nM | < 10 nM | < 10 nM | 
5 |  |  |  |  |  |  |  |  | CCn1c(-c2cccnc2[C@H](C)OC)c2c3cc(ccc31)-c1cc(O)cc(c1)C[C@H](NC(=O)[C@H](C1CCCC1)N(C)C(=O)[C@@H](C)N(C)C(=O)[C@@H]1N[C@@H]1C1CC1)C(=O)N1CCC[C@H](N1)C(=O)OCC(C)(C)C2 [Example 327] | 1000 to 10000 nM | > 10000 nM | > 10000 nM | 1000 to 10000 nM | > 10000 nM | 1000 to 10000 nM | 1000 to 10000 nM | 1000 to 10000 nM | > 10000 nM | > 10000 nM | > 10000 nM | 1000 to 10000 nM | 
6 |  |  |  |  |  |  |  |  | CCn1c(-c2cccnc2[C@H](C)OC)c2c3cc(ccc31)-c1cc(O)cc(c1)C[C@H](NC(=O)[C@H](C1CCCC1)N(C)C(=O)[C@H](C)N(C)C(=O)[C@@H]1N[C@@H]1C1CC1)C(=O)N1CCC[C@H](N1)C(=O)OCC(C)(C)C2 [Example 328] | 100 to 1000 nM | 10 to 100 nM | 10 to 100 nM | 10 to 100 nM | 100 to 1000 nM | 10 to 100 nM | 10 to 100 nM | 10 to 100 nM | 100 to 1000 nM | 100 to 1000 nM | 10 to 100 nM | 10 to 100 nM | 
7 | 100 to 1000 nM | 10 to 100 nM | 10 to 100 nM | < 10 nM | 10 to 100 nM | 10 to 100 nM | 10 to 100 nM | < 10 nM | CCOC(=O)[C@H]1O[C@@H]1C(=O)N1CC[C@H](C(=O)N(C)[C@H](C(=O)N[C@H]2Cc3cc(O)cc(c3)-c3ccc4c(c3)c(c(-c3cccnc3[C@H](C)OC)n4CC)CC(C)(C)COC(=O)[C@@H]3CCCN(N3)C2=O)C(C)C)C1 [Example 329] |  |  |  |  |  |  |  |  |  |  |  |  | IC50 (NRAS Q61K; [17]): 10 to 100 nM; IC50 (NRAS Q61R; [18]): 10 to 100 nM; IC50 (NRAS WT; [19]): 10 to 100 nM; IC50 (KRAS G12C; [20]): < 10 nM
8 | 10 to 100 nM | 10 to 100 nM | 10 to 100 nM | < 10 nM | 10 to 100 nM | 10 to 100 nM | 10 to 100 nM | < 10 nM | CCn1c(-c2cccnc2[C@H](C)OC)c2c3cc(ccc31)-c1cc(O)cc(c1)C[C@H](NC(=O)[C@H](C(C)C)N(C)C(=O)[C@H]1CCN(C(=O)C3CO3)C1)C(=O)N1CCC[C@H](N1)C(=O)OCC(C)(C)C2 (stereo partly drawn) [Example 330] |  |  |  |  |  |  |  |  |  |  |  |  | IC50 (NRAS Q61K; [17]): 100 to 1000 nM; IC50 (NRAS Q61R; [18]): 100 to 1000 nM; IC50 (NRAS WT; [19]): 10 to 100 nM; IC50 (KRAS G12C; [20]): < 10 nM
9 | 100 to 1000 nM | 10 to 100 nM | 10 to 100 nM | 10 to 100 nM | 100 to 1000 nM | 10 to 100 nM | 10 to 100 nM | 10 to 100 nM | CCn1c(-c2cccnc2[C@H](C)OC)c2c3cc(ccc31)-c1cc(O)cc(c1)C[C@H](NC(=O)[C@H](C(C)C)N(C)C(=O)[C@H]1CCN(C(=O)C3OC3c3ccccc3)C1)C(=O)N1CCC[C@H](N1)C(=O)OCC(C)(C)C2 (stereo partly drawn) [Example 331] |  |  |  |  |  |  |  |  |  |  |  |  | IC50 (NRAS Q61K; [17]): 100 to 1000 nM; IC50 (NRAS Q61R; [18]): 100 to 1000 nM; IC50 (NRAS WT; [19]): 10 to 100 nM; IC50 (KRAS G12C; [20]): < 10 nM
10 | 100 to 1000 nM | 10 to 100 nM | 10 to 100 nM | 10 to 100 nM | 10 to 100 nM | 10 to 100 nM | 10 to 100 nM | 10 to 100 nM | CCn1c(-c2cccnc2[C@H](C)OC)c2c3cc(ccc31)-c1cc(O)cc(c1)C[C@H](NC(=O)[C@H](C(C)C)N(C)C(=O)[C@H]1CCN(C(=O)C3(C)CO3)C1)C(=O)N1CCC[C@H](N1)C(=O)OCC(C)(C)C2 (stereo partly drawn) [Example 332] |  |  |  |  |  |  |  |  |  |  |  |  | IC50 (NRAS Q61K; [17]): 100 to 1000 nM; IC50 (NRAS Q61R; [18]): 100 to 1000 nM; IC50 (NRAS WT; [19]): 10 to 100 nM; IC50 (KRAS G12C; [20]): 10 to 100 nM
